According to patent publication US20170334899A1, “AMINO-SUBSTITUTED ISOTHIAZOLES” (Bayer Pharma Aktiengesellschaft, priority 2014, published 2017):

Experiments:
Type in all cases: cell-based
HeLa = test: Proliferation assay (crystal violet), HeLa; conditions: Homo sapiens, HeLa, 96 h, HeLa cells; 4 days incubation; crystal violet staining; read-out: IC50 inhibition of proliferation, HeLa
Description: Cultivated tumor cells (cells were ordered from ATCC, except HeLa-MaTu and HeLa-MaTu-ADR, which were ordered from EPO-GmbH, Berlin) were plated at a density of 1000 to 5000 cells/well, depending on the growth rate of the respective cell line, in a 96-well multititer plate in 200 μL of their respective growth medium supplemented 10% fetal calf serum. After 24 hours, the cells of one plate (zero-point plate) were stained with crystal violet (see below), while the medium of the other plates was replaced by fresh culture medium (200 μl), to which the test substances were added in various concentrations (0 μM, as well as in the range of 0.001-10 μM; the final concentration of the solvent dimethyl sulfoxide was 0.5%). The cells were incubated for 4 days in the presence of test substances. Cell proliferation was determined by staining the cells with crystal violet: the cells were fixed by adding 20 μl/measuring point of an 11% glutaric aldehyde solution for 15 minutes at room temperature. After three washing cycles of the fixed cells with water, the plates were dried at room temperature. The cells were stained by adding 100 μl/measuring point of a 0.1% crystal violet solution (pH 3.0). After three washing cycles of the stained cells with water, the plates were dried at room temperature. The dye was dissolved by adding 100 μl/measuring point of a 10% acetic acid solution. Absorbtion was determined by photometry at a wavelength of 595 nm. The change of cell number, in percent, was calculated by normalization of the measured values to the aborbtion values of the zero-point plate (=0%) and the absorbtion of the untreated (0 μm) cells (=100%). The IC50 values were determined by means of a 4 parameter fit.

[1] = test system: human cervical tumor cell line HeLa (ATCC CCL-2); test: SAC-Formation - Paclitaxel-Induced Assay; conditions: Homo sapiens, HeLa, 24 h, HeLa cells, paclitaxel 0.05 μM, test range 0.005 μM-20 μM, read-out: IC50 [mol/l] SAC-Formation - Paclitaxel-Induced Assay
Source text: (§1) The spindle assembly checkpoint assures the proper segregation of chromosomes during mitosis. Upon entry into mitosis, chromosomes begin to condensate which is accompanied by the phosphorylation of histone H3 on serine 10. Dephosphorylation of histone H3 on serine 10 begins in anaphase and ends at early telophase. Accordingly, phosphorylation of histone H3 on serine 10 can be utilized as a marker of cells in mitosis. Nocodazole is a microtubule destabilizing substance. Paclitaxel is a microtubule stabilizing compound. Thus, nocodazole as well as paclitaxel interfere with microtubule dynamics and mobilize the spindle assembly checkpoint. […] The mitotic breakthrough can be detected by the decrease of cells with phosphorylation of histone H3 on serine 10. This decline is used as a marker to determine the capability of compounds of the present invention to induce a mitotic breakthrough. The typical morphological alteration of nuclei with a prematurely completed mitosis after SAC-inhibition can be monitored via image analysis routines supporting those findings.
(§2) The nocodazole and paclitaxel variations were used to focus on compounds that are capable of inhibiting a SAC induced by both microtubule destabilization as well as microtubule stabilization. When SAC inducing agents and compounds are given simultaneously inhibitors that effectively block the SAC during formation or abrogation are identified. When cells are incubated with a SAC inducing agent and the SAC interfering compound is given after a defined time, inhibitors are identified that effectively block SAC abrogation.
Cultivated cells of the human cervical tumor cell line HeLa (ATCC CCL-2) were plated at a density of 1000 cells/well in a 1536-well microtiter plate in 2 μl PAA
(§3) Ham's F12 Medium supplemented with 1% (v/v) glutamine, 1% (v/v) penicillin, 1% (v/v) streptomycin and 10% (v/v) fetal calf serum. After incubation overnight at 37° C., 10 μl/well paclitaxel at a final concentration of 0.05 μM were added to cells. Test compounds solubilized in dimethyl sulfoxide (DMSO) were added at various concentrations (0 μM, as well as in the range of 0.005 μM -20 μM; the final concentration of the solvent DMSO was 0.5% (v/v)). Cells were incubated for 24 h at 37° C. in the presence of test compounds in combination with paclitaxel. Thereafter, cells were fixed in 4% (v/v) paraformaldehyde in phosphate buffered saline (PBS) at 4° C. overnight then permeabilized in 0.1% (v/v) Triton X™ 100 in PBS at room temperature for 20 min and blocked in 0.5% (v/v) bovine serum albumin (BSA) in PBS at room temperature for 15 min. After washing with PBS, 5 μl/well antibody solution (anti-phospho-histone H3 clone 3H10, FITC; Millipore, Cat#16-222; 1:1000 dilution) was added to cells, which were incubated for 2 h at room temperature. Afterwards, cells were washed with PBS and 5 μl/well solution of HOECHST 33342 dye (5 μg/ml) was added to cells and cells were incubated 15 min at room temperature in the dark. Cells were washed twice with PBS then covered with PBS and stored at 4° C. until analysis. Images were acquired with a PERKIN ELMER OPERA™ High-Content Analysis reader. Images were analyzed with image analysis software MetaXpress™ from Molecular devices utilizing the Mitotic Index application module. In this assay both labels HOECHST 33342 and phosphorylated Histone H3 on serine 10 were measured. HOECHST 33342 labels the DNA and is used to count the cell number. The staining of phosphorylated Histone H3 on serine 10 determines the number of mitotic cells. […] Otherwise cells were arrested at G2/M phase of the cell cycle progression. The raw assay data were further analyzed by four-parametric hill equation using Genedata's Assay Analyzer and Condoseo software.

[2] = test system: human cervical tumor cell line HeLa (ATCC CCL-2); test: SAC-Formation - Nocodazole-Induced Assay; conditions: Homo sapiens, HeLa, 24 h, HeLa cells, nocodazole 0.1 μg/ml together with test compound, decrease of mitotic cells (phospho-histone H3 Ser10)
Source text: as §1, §2
as §3, with “Cultivated cells of the human cervical tumor cell line HeLa (ATCC CCL-2) were plated at a density of 1000 cells/well in a 1536-well microtiter plate in 2 μl PAA Ham's” for “Ham's”, “nocodazole” for “paclitaxel”, “0.1 μg/ml” for “0.05 μM”, “μM-20” for “μM -20”, “nocodazole.” for “paclitaxel.”

| SMILES | IC50 (HeLa) | IC50 [1] | IC50 [2] |
| --- | --- | --- | --- |
| CC(=O)Nc1ccccc1NC(=O)c1cccc(NC(=O)c2c(C)nsc2Nc2cnc3ccccc3n2)c1 [Example 84, N-(3-{[2-(Acetylamino)phenyl]carbamoyl}phenyl)-3-methyl-5-(quinoxalin-2-ylamino)-1,2-thiazole-4-carboxamide] | 10 µM | 8.4 µM | 0.096 µM |
| COCCCNC(=O)c1cccc(NC(=O)c2c(C)nsc2Nc2cnc3ccccc3n2)c1 [Example 85, N-{3-[(3-Methoxypropyl)carbamoyl]phenyl}-3-methyl-5-(quinoxalin-2-ylamino)-1,2-thiazole-4-carboxamide] | 8.9 µM | 0.97 µM | 0.018 µM |
| CC(=O)N[C@H]1CCN(C(=O)c2cccc(NC(=O)c3c(C)nsc3Nc3cnc4ccccc4n3)c2)C1 [Example 86, N-(3-{[(3S)-3-(acetylamino)pyrrolidin-1-yl]carbonyl}-phenyl)-3-methyl-5-(quinoxalin-2-ylamino)-1,2-thiazole-4-carboxamide] | 10 µM | 13 µM | 3.2 µM |
| Cc1nsc(Nc2cnc3ccccc3n2)c1C(=O)Nc1cccc(C(=O)N2CCN(c3cccc(F)c3)CC2)c1 [Example 87, N-(3-{[4-(3-Fluorophenyl)piperazin-1-yl]carbonyl}phenyl)-3-methyl-5-(quinoxalin-2-ylamino)-1,2-thiazole-4-carboxamide] | 4.5 µM | 1.5 µM | 0.39 µM |
| Cc1nsc(Nc2cnc3ccccc3n2)c1C(=O)Nc1cccc(C(=O)N2CCN(C(=O)c3ccccc3)CC2)c1 [Example 88, N-{3-[(4-Benzoylpiperazin-1-yl)carbonyl]phenyl}-3-methyl-5-(quinoxalin-2-ylamino)-1,2-thiazole-4-carboxamide] | 10 µM | 0.48 µM | 0.031 µM |
| Cc1nsc(Nc2cnc3ccccc3n2)c1C(=O)Nc1cccc(C(=O)N2CCN(Cc3ccc(F)cc3)CC2)c1 [Example 93, N-(3-{[4-(4-Fluorobenzyl)piperazin-1-yl]carbonyl}phenyl)-3-methyl-5-(quinoxalin-2-ylamino)-1,2-thiazole-4-carboxamide] | 9.9 µM | 2.7 µM | 0.71 µM |
| Cc1nsc(Nc2cnc3ccccc3n2)c1C(=O)Nc1cccc(C(=O)N2CCN(CCc3ccccn3)CC2)c1 [Example 94, 3-Methyl-N-[3-({4-[2-(pyridin-2-yl)ethyl]piperazin-1-yl}-carbonyl)phenyl]-5-(quinoxalin-2-ylamino)-1,2-thiazole-4-carboxamide] | 10 µM | 8.4 µM | 0.94 µM |
| Cc1nsc(Nc2cnc3ccccc3n2)c1C(=O)Nc1cccc(C(=O)NCCCN2CCOCC2)c1 [Example 95, 3-Methyl-N-(3-{[3-(morpholin-4-yl)propyl]carbamoyl}-phenyl)-5-(quinoxalin-2-ylamino)-1,2-thiazole-4-carboxamide] | 10 µM | 10 µM | 0.068 µM |
| Cc1nsc(Nc2cnc3ccccc3n2)c1C(=O)Nc1cccc(N)c1 [Example 450, N-(3-Aminophenyl)-3-methyl-5-(quinoxalin-2-ylamino)-1,2-thiazole-4-carboxamide] | > 10 µM | 20 µM | 12 µM |

Further lines, results first:

| IC50 (HeLa) | IC50 [1] | IC50 [2] | SMILES |
| --- | --- | --- | --- |
| 10 µM | 11 µM | 2.9 µM | Cc1nsc(Nc2cnc3ccccc3n2)c1C(=O)Nc1cccc(C(=O)N2CCN(C(=O)N(C)C)CC2)c1 [Example 89, N,N-Dimethyl-4-[3-({[3-methyl-5-(quinoxalin-2-ylamino)-1,2-thiazol-4-yl]carbonyl}amino)benzoyl]piperazine-1-carboxamide] |
| 10 µM | 17 µM | 0.79 µM | Cc1nsc(Nc2cnc3ccccc3n2)c1C(=O)Nc1cccc(C(=O)N2CCN(CCN(C)C)CC2)c1 [Example 90, N-[3-({4-[2-(Dimethylamino)ethyl]piperazin-1-yl}carbonyl)-phenyl]-3-methyl-5-(quinoxalin-2-ylamino)-1,2-thiazole-4-carboxamide] |
| 10 µM | 0.23 µM | 0.042 µM | COCCN1CCN(C(=O)c2cccc(NC(=O)c3c(C)nsc3Nc3cnc4ccccc4n3)c2)CC1 [Example 91, N-(3-{[4-(2-Methoxyethyl)piperazin-1-yl]carbonyl}phenyl)-3-methyl-5-(quinoxalin-2-ylamino)-1,2-thiazole-4-carboxamide] |
| 10 µM | 20 µM | 0.94 µM | Cc1nsc(Nc2cnc3ccccc3n2)c1C(=O)Nc1cccc(C(=O)N2CCN(CC(=O)N(C)C)CC2)c1 [Example 92, N-[3-({4-[2-(Dimethylamino)-2-oxoethyl]piperazin-1-yl}-carbonyl)phenyl]-3-methyl-5-(quinoxalin-2-ylamino)-1,2-thiazole-4-carboxamide] |
